Results reported in paper PMC12035797, “Peptidomimetics Activating the Proteasome: A New Perspective for Parkinson’s Treatment” (Journal of Medicinal Chemistry, 2025).

How the values were obtained:
[1] = system: endogenous α-synuclein in primary cortical cultures; assay: Endogenous α-synuclein level in primary cortical cultures (Simple Western Jess); format: cell-based, mouse; settings: 2.5 μM, 7 days; statistical significance only for 1g
Procedure: The effectiveness of the compounds has also been examined by using proteins as substrates. By means of SDS-PAGE electrophoresis, we checked the extent to which model proteins were digested by the 20S proteasome alone and after its stimulation by 10 μM modulators. […] After incubation with the enzyme in the presence of each modulator, less than 40% of synuclein remained. […] All animal experiments were performed following the protocols evaluated and approved by the Laboratory Animal Centre of the University of Helsinki (Ethics Approval License KEK24-013) and in accordance with the European Community Guidelines (Directive 2010/63/EU). […] The viability and number of neuronal cells were calculated automatically in an Automated Cell Counter (Bio-Rad), plated at a density of 1,000,000 cells per well on 6-well plates and cultured in Neurobasal A Medium (Thermo Fisher Scientific (Gibco), #12349015, Waltham, MA, USA) supplemented with GlutaMAX (Thermo Fisher Scientific (Gibco) #A1286001, Waltham, MA, USA), B-27 Supplement (Thermo Fisher Scientific (Gibco), #17504001, Waltham, MA, USA), and 200 ng/mL Primocin (Invitrogen, ant-pm-1, San Diego, CA, USA). […] Protein concentrations in the cell lysates were determined using a bicinchoninic acid (BCA) assay (Sigma-Aldrich, 3B9643-1L-KC, MO, USA) according to the manufacturer’s instructions. […]

[2] = system: human 20S proteasome (α-synuclein substrate); assay: α-Synuclein degradation by h20S (SDS-PAGE); format: biochemical; settings: 10 μM modulator, 37 °C, 1.5 h; h20S alone = 100%
Procedure: The effectiveness of the compounds has also been examined by using proteins as substrates. By means of SDS-PAGE electrophoresis, we checked the extent to which model proteins were digested by the 20S proteasome alone and after its stimulation by 10 μM modulators. […] After incubation with the enzyme in the presence of each modulator, less than 40% of synuclein remained. […] The experiment was performed as it was described.[36] Briefly, α-synuclein (rPeptide, […], USA) and Tau-441 (Novus Biologicals, Centennial, CO, USA) were dissolved in 20 mM HEPES buffer (pH 7.4) and mixed with a human 20S proteasome. Samples were incubated at 37 °C for 1.5 h, after which the reaction was terminated by adding 4× Laemmli buffer. The levels of undigested proteins were evaluated by SDS-PAGE. The band intensities of proteins incubated with […] in the presence of a modulator were compared to those of proteins incubated with the enzyme alone, which were set as 100%. Three independent experiments were performed for each protein. The results are presented as the means ± SD. One-way ANOVA with Tukey's post-hoc test was used to determine statistical significance.

[3] = biological target: T1, human 20S proteasome, ChT-L peptidase; assay: Chymotrypsin-like (ChT-L) activity of h20S probed with Suc-LLVY-AMC; format: biochemical
T1 construct: human proteasome isolated from erythrocytes; from tissue; host or cells: human erythrocytes
Procedure: (§1) To assess the influence of substitutions increasing proteolytic stability on the modulators’ capacity to stimulate chymotrypsin-like, trypsin-like, and caspase-like activity of h20S, we used classic fluorogenic substrates: Suc-LLVY-AMC, Boc-LRR-AMC, and Z-LLE-AMC, respectively.
(§2) The effect of all synthesized peptidomimetics on the catalytic activity of the proteasome was tested using a human proteasome isolated from erythrocytes. Suc-LLVY-AMC, Boc-LRR-AMC, and Z-LLE-AMC fluorogenic substrates (Bachem, Bubendorf, Switzerland) were used for assessment of the chymotrypsin-, trypsin-, and caspase-like activities, respectively. A homemade FRET-type substrate Dabcyl-EDANS (Lys(Dabcyl)-[…]EDANS)-Gly)[26] was used as an additional probe. Stock solutions of the substrates and tested peptidomimetics were prepared in dimethyl sulfoxide (DMSO), ensuring that the final concentration of DMSO in all samples remained consistent at 2%. The small fluorogenic substrates were used at a final concentration of 100 μM, while Dabcyl-EDANS was prepared at a final concentration of 15 μM. […] Activity tests were conducted in 96-well plates using 50 mM Tris/HCl, pH 8.0, as an assay buffer. The final concentration of h20S proteasome was adjusted to 0.002 mg/mL (2.8 nM). The fluorescence of released aminomethylcoumarin (AMC) was monitored at 460 nm (λex was 380 nm), while the hydrolysis of Dabcyl-EDANS was detected by measuring emission at 493 nm (λex was set at 335 nm). Fluorescence measurements were taken continuously every 2 min over a 60 min period at 37 °C using a Tecan Infinite M200Pro spectrofluorometer (Tecan Trading AG, Männedorf, Switzerland). All activity assays were performed in at least three independent replicates. The relative activity was calculated in relation to the catalytic activity of the vehicle (DMSO)-treated latent proteasome, which was regarded as 100%. Statistical analysis was performed using the one-way ANOVA followed by Tukey’s post-hoc test. P-value <0.05 was considered statistically significant.

[4] = system: T2, human 20S proteasome, T-L peptidase; assay: Trypsin-like (T-L) activity of h20S probed with Boc-LRR-AMC; format: biochemical; settings: 100 μM Boc-LRR-AMC
T2 construct: human proteasome isolated from erythrocytes; from tissue; host or cells: human erythrocytes
Procedure: as §1, §2

SMILES: C[C@@H](O)[C@H](NC(=O)[C@H](Cc1ccccc1)NC(=O)[C@H](Cc1ccc(O)cc1)NC(=O)CN(CCCCN)C(=O)[C@H](CCCNC(=N)N)NC(=O)[C@H](CCCNC(=N)N)NC(=O)[C@H](CCCNC(=N)N)NC(=O)[C@H](CCC(N)=O)NC(=O)[C@H](CCCNC(=N)N)NC(=O)[C@H](CCCNC(=N)N)NC(=O)[C@H](CCCCN)NC(=O)[C@H](CCCCN)NC(=O)[C@@H](N)CCCNC(=N)N)C(=O)NCC(=O)N[C@@H](CO)C(=O)N[C@@H](CCCCN)C(=O)N[C@@H](CC(=O)O)C(=O)N[C@@H](Cc1c[nH]c2ccccc12)C(=O)N[C@@H](CCCNC(=N)N)C(=O)N[C@@H](CO)C(=O)N[C@@H](Cc1ccc(O)cc1)C(=O)N[C@@H](Cc1ccc(O)cc1)C(=O)N[C@@H](CO)C(=O)O [1f]
- effect on endogenous α-synuclein in primary cortical cultures [1]: able to reduce the amount of endogenous α-synuclein
- α-synuclein remaining after incubation with h20S [2]: less than 40%
- EC50 ([3]; Suc-LLVY-AMC, n = 6, EC50 = concentration causing 50% growth of activity vs vehicle control): 0.54 ± 0.1 µM
- stimulation of proteasome activity ([3]; as summed up in Conclusions, substrate not named there): approximately 17 times
- stimulation of the ChT-L peptidase ([3]; at 1 μM concentration, Suc-LLVY-AMC): approximately 16 fold
- T-L stimulating capacity, Boc-LRR-AMC [4]: activated the T-L less and less with an increasing concentration
